According to ChEMBL document CHEMBL6078613, “Cathepsin B: The dawn of tumor therapy” (Eur J Med Chem, 2024):
Blank lines part the entries; values can stand above or below the compound they belong to. Where a SMILES comes first, the peptide text is derived from it. The star is where a group is joined. Cbz = O=C(OCc1ccccc1)*; CH2F = FC*

Experiments:
Cathepsin B [1] = molecular target: T1, Cathepsin B (Homo sapiens, UniProt P07858); assay: Inhibition of Cathepsin B (unknown origin) at 10 uM relative to control
Cathepsin B [2] = molecular target: T1, Cathepsin B; assay: Inhibition of Cathepsin B (unknown origin)
[3] = Inhibition of Cathepsin B-like cysteine protease (unknown origin); parameters: species or system Homo sapiens

inhibition (Cathepsin B [1]): 91%
Compound: CCOC(=O)[C@H]1O[C@@H]1C(=O)N[C@@H](CC(C)C)C(=O)NCCC(C)C

IC50 (Cathepsin B [2]): 6 µM
Compound: COC(=O)CC[C@H](NC(=O)[C@H](Cc1c[nH]c2ccccc12)NC(=O)OCc1ccccc1)C(=O)N[C@@H](Cc1cnc[nH]1)C(=O)N[C@@H](CC(=O)OC)C(=O)CF (Cbz-WE(OMe)HD(OMe)-CH2F)

IC50 [3]: 0.009 µM
Compound: CC(C)C[C@H](NC(=O)[C@H]1O[C@@H]1C(=O)O)C(=O)NCCCCN=C(N)N [E-64]
